# Reference: patent publication US5519021A, “Benzoxazinones as inhibitors of HIV reverse transcriptase” (priority 1995, dated 1996)
# Read-outs that look alike come from different tables or passages of the source.
# Tests used:
# [1] = molecular target: T1, recombinant HIV reverse transcriptase (HIV RTR) (Human immunodeficiency virus type 1 group M subtype B, UniProt P04585); experiment: Reverse transcriptase assay (wild type); type: biochemical, HIV-1
# T1 construct: recombinant HIV reverse transcriptase (HIV RTR); made in house; host or cells: E. coli
# Procedure: (§1) The assay measures the incorporation of tritiated deoxyguanosine monophosphate by recombinant HIV reverse transcriptase (HIV RTR) (or other RT) into acid-precipitable cDNA at the Km values of dGTP and poly r(C).cndot.oligo d(G)12-18.
# (§2) The assays were carried out in 55 mM Tris (pH 8.2)-30 mM KCl-30 mM MgCl2 -1 mM dithiothreitol-20 μg of rC:dG 12-18 (Pharmacia) per ml-8 mM [^3 H]dGTP (New England Nuclear)-0.01% Triton X-100-50 mM ethylene glycol-bis(β-amino-ethyl ether)-N,N,N',N'-tetraacetic acid (EGTA)-1 mg of bovine serum albumin per ml. After 60 min of incubation at 37° C., acid-precipitable material was collected onto glass fiber filters by using a semiautomatic cell harvester. Bacterial cell extracts containing RT were diluted to within the linear range of the assay, and activity was determined in the presence and absence of inhibitor. Purified HIV-1 RT heterodimer produced in E. coli also served as a control.
# [2] = molecular target: T2, A17 RT (Human immunodeficiency virus type 1 group M subtype B, UniProt P04585, K690N/Y768C); experiment: biochemical; parameters: species or system HIV-1
# T2 construct: A17 RT was employed in the assay; made in house; host or cells: bacteria
# Procedure: as §1, §2
# For the double mutant assay (dm), A17 RT was employed in the assay. […] Results are measured as IC50 dm in nanomoles/liter.
# [3] = system: HIV-1 (wild-type); experiment: Cell spread assay (MT-4 T-lymphoid cells); type: cell-based; conditions: Human immunodeficiency virus 1, MT4, 72 h
# Procedure: (§3) Inhibition of the spread of HIV in cell culture was measured according to Nunberg, J. H. et al., J. Virol. 65, 4887 (1991 ). In this assay, MT-4 T-lymphoid cells were infected with HIV-1 (wild-type, unless otherwise indicated) by using a predetermined inoculum, and cultures were incubated for 24 h. At this time, ≤1% of the cells were positive by indirect immunofluorescence. Cells were then extensively washed and distributed into 96-well culture dishes. Serial twofold dilutions of inhibitor were added to the wells, and cultures were continued for 3 additional days. At 4 days postinfection, 100% of the cells in control cultures were infected. HIV-1 p24 accumulation was directly correlated with virus spread. The cell culture inhibitory concentration was defined as the inhibitor concentration in nanomoles/liter which reduced the spread of infection by at least 95%, or CIC95.
# [4] = molecular target: T3, reverse transcriptase of HIV2 (Human immunodeficiency virus type 2 subtype A, UniProt P04584); experiment: Reverse transcriptase assay, RT-2; type: biochemical
# T3 construct: is the reverse transcriptase of HIV2
# T3 sequence (P04584 613-1171): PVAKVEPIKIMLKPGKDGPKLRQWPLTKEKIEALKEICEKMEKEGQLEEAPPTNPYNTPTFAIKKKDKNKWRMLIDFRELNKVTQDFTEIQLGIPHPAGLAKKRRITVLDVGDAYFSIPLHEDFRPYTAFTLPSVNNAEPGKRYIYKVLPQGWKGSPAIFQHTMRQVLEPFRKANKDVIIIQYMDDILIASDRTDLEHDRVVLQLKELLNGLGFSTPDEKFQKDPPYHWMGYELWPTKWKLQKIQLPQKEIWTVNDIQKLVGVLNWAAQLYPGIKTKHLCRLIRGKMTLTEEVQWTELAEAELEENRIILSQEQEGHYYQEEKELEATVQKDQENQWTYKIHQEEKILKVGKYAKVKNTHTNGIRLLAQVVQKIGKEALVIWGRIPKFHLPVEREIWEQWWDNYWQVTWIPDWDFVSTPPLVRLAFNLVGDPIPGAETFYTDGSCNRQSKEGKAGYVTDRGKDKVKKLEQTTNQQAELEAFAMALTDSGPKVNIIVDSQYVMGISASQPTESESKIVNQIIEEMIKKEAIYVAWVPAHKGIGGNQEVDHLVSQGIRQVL
# T3 sequence (P04584 613-1051): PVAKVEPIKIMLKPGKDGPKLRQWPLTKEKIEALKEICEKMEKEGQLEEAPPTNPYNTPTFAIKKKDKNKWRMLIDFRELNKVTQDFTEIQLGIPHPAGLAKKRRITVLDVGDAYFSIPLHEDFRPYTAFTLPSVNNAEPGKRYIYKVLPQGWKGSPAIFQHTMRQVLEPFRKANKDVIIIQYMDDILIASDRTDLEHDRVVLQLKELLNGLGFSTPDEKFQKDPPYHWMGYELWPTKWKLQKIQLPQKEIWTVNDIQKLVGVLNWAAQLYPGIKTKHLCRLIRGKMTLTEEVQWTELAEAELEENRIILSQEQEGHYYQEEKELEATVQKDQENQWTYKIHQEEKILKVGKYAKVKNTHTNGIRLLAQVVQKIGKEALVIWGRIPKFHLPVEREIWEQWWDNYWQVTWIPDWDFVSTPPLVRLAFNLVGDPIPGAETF
# Procedure: as §1
# as §2, with “control. Results are determined as inhibitor concentration to give 50% inhibition (IC50 wt), in nanomoles/liter.” for “control.”
# is the reverse transcriptase of HIV2.
# [5] = system: HIV-1 K103N; experiment: Cell spread assay, K103N mutant; type: cell-based; conditions: MT-4 cells
# Procedure: as §3
# (§4) *Mutants K103N and Y181C are drugresistant HIV1 reverse transcriptases. D
# [6] = system: HIV-1 Y181C; experiment: Cell spread assay, Y181C mutant; type: cell-based; conditions: MT-4 cells
# Procedure: as §3, §4
# [7] = system: HIV-1 DM (double mutant); experiment: Cell spread assay, double mutant (DM); type: cell-based; conditions: MT-4 cells
# Procedure: as §3, §4
# is the double mutant, as discussed in the reverse transcriptase assay. RT
# [8] = Protein binding (HPLC method); type: in vitro ADME; conditions: Normal Human Plasma (HPLC Method)
# From the text: Protein Binding: 98.0% Normal Human Plasma (HPLC Method)
# [9] = Table I, wild-type RT, read-out: IC*50 wt
# [10] = Table I, concentration reducing spread of infection by at least 95%, MT-4 cells, read-out: CIC*95
Compound,"IC50 [1, 9] [nM]",IC50 [2] [nM],"IC95 [3, 10] [µM]",also measured
COc1ccccc1C#CC1(C(F)(F)F)OC(=O)Nc2ccc(Cl)cc21 (stereo not drawn) [Compound 11],16,270,0.006,–
"N#Cc1ccccc1C#CC1(C(F)(F)F)OC(=O)Nc2ccc(Cl)cc21 (racemic) [Compound 2, (+/-) 6-Chloro-4-(2-cyanophenyl)ethynyl-4-(1,1,1-trifluoromethyl)-1,4-dihydro-2H-3,1-benzoxazin-2-one]",25,480,0.006,–
"O=C1Nc2ccc(Cl)cc2C(C#Cc2ccccc2)(C(F)(F)F)O1 (racemic) [12(+/-), (±) 6-Chloro-4-phenylethynyl-4-trifluoromethyl-1,4-dihydro-2H-3,1-benzoxazin-2-one]",12,280,0.025,–
"O=C1Nc2ccc(Cl)cc2[C@@](C#Cc2ccccc2)(C(F)(F)F)O1 [4(-), (-) 6-Chloro-4-phenylethynyl-4-trifluoromethyl-1,4-dihydro-2H-3,1-benzoxazin-2-one]",–,69,–,IC50 [1]: 8.6 nM; IC95 ([3]; read-out: CIC*95): 0.012 µM
CCC1(c2ccccc2)OC(=S)Nc2ccc(Cl)cc21 (stereo not drawn) [Compound 44],–,> 300000,–,"IC50 ([1]; Table II, wild-type RT, read-out: IC*50 wt): 15 nM; IC95 ([3]; Table II, concentration reducing spread of infection by at least 95%, MT-4 cells, read-out: CIC*95): 0.1 µM"
CN(C)CC#CC1(C(F)(F)F)OC(=O)Nc2ccc(Cl)cc21 (stereo not drawn) [Compound 24],43,1950,0.1,–
COCC#CC1(C(F)(F)F)OC(=O)Nc2ccc(Cl)cc21 (stereo not drawn) [Compound 18],15,2650,0.05,–
"O=C1Nc2ccc(Cl)cc2[C@](C#Cc2ccccc2)(C(F)(F)F)O1 [3(+), (+) 6-Chloro-4-phenylethynyl-4-trifluoromethyl 1,4-dihydro-2H-3,1-benzoxazin-2-one]",–,37000,> 0.2,IC50 [1]: 2900 nM
CCCC1(C2CC2)OC(=O)Nc2ccc(Cl)cc21 (stereo not drawn) [Compound 28],307,114000,1.5,–
"C=CCCC1(C(F)(F)F)OC(=O)Nc2ccc(Cl)cc21 (racemic) [Compound 15, (+/-) 4-(1,1,1,-trifluoromethyl)-4-(1-buten-4-yl)-6-chloro-1,4-dihydro-2H-3,1-benzoxazin-2-one]",29,> 100000,–,–
"O=C1Nc2ccc(Cl)cc2[C@@](C#CC2CC2)(C(F)(F)F)O1 [37.2(-), (-) 6-Chloro-4-cyclopropylethynyl-4-trifluoromethyl-1,4-dihydro-2H-3,1-benzoxazin-2-one]",–,–,–,"IC95 ([3]; WT virus, MT-4 cells, N = 2, read-out: CIC95 (μM) WT): < 0.006 µM; IC50 [4]: 80800 nM; CIC95 (μM) K103N [5]: 0.100 µM; CIC95 (μM) Y181C [6]: < 0.025 µM; CIC95 (μM) DM [7]: 0.400 µM; fraction unbound [8]: 0.02"
"C#CC1(C(F)(F)F)OC(=O)Nc2ccc(Cl)cc21 (racemic) [Compound 26, (+/-) 6-Chloro-4-ethynyl-4-(1,1,1-trifluoromethyl)-1,4-dihydro-2H-3,1-benzoxazin-2-one]",0.24,> 100000,–,–
CCCCC1(C(F)(F)F)OC(=O)Nc2ccc(Cl)cc21 (stereo not drawn) [Compound 19],24,25000,–,–
COc1cccc(C#CC2(C(F)(F)F)OC(=O)Nc3ccc(Cl)cc32)c1 (stereo not drawn) [Compound 10],18,390,–,–
Cc1ccc(C#CC2(C(F)(F)F)OC(=O)Nc3ccc(Cl)cc32)cc1 (stereo not drawn) [Compound 8],163,8470,–,–
O=C1Nc2ccc(Cl)cc2C(C#CCO)(C(F)(F)F)O1 (stereo not drawn) [Compound 27],550,> 100000,–,–
